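Where inhibition never reached the appropriate level, the endpoint shown equals the highest concentration tested. Otherwise, values were interpolated linearly from a five-concentration, 48-hour dose response in 96-well plates. Here, GI50 denotes the concentration required for 50% inhibition of growth. At the TGI there is no net growth.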

One assay deals with DMS 114 small cell lung. Kind of assay: NCI tumour cell line growth inhibition, 48 h.
Turning to `CCOC(=O)C1=C(NC)OCC1=O`, the TGI was over 100 µM.
For the molecule `CCOC(=O)C1(C)CCC(C(C(=O)O)C(=O)O)CC1=O` (stereo not given), the TGI was over 100 µM.
Still for that read-out and setting: the value for `CC1NOC(=O)C1N=Nc1ccc(Cl)cc1Cl` (stereo not given) was 53.9 µM; that for `O=C(c1ccccc1)[C@H]1Nc2ccc(Cl)cc2[C@H]2CCC[C@@H]12` was over 100 µM; that for `COc1ccc2nc(NC(=O)C(=O)CC(=O)c3ccc([N+](=O)[O-])cc3)sc2c1` was over 100 µM.
The same measure, in the same setting: then `CC(=O)Nc1ccc(C2CC(c3ccc([N+](=O)[O-])cc3)=Nc3ccccc3S2=O)cc1` (stereo not given), with 69.1 µM.
As for `COc1cc(/C=C2\NC(=O)C(Cc3cc(OC)c(OC)c(C)c3OC)N(C(C)=O)C2=O)c(OC)c(C)c1OC` (stereo not given), the TGI was over 100 µM.
For `C[C@H](C(=O)O)C(=O)NC(=O)N(Cc1ccccc1)N=O`, the TGI was over 100 µM.
Consider `OC(c1ccccc1Br)(c1ccccc1Br)C(F)(F)F`, for which the TGI worked out at 38.2 µM.
For the molecule `NC(N)=NCCCC(NCc1c2ccccc2nc2ccccc12)C(=O)O` (stereo not given), the TGI was determined as 79.4 µM.
For `CC(=O)OC1COC(N2CCc3cc([N+](=O)[O-])ccc32)C(OC(C)=O)C1OC(C)=O` (stereo not given), the TGI is over 100 µM.
Consider `CC12OC(=O)C(C#N)C1(C)C1C(=O)CCCC12` (stereo not given), for which the TGI is over 100 µM.
As to `Cc1nc2ccccc2c(=O)n1/N=C(\N=Nc1ccccc1Cl)c1ccccc1Cl`, the TGI was over 100 µM.
Still for that read-out and setting: then `CC(=O)OCC(=O)[C@@]1(O)CC[C@H]2[C@@H]3C[C@H](C)C4=CC(=O)C=C[C@]4(C)[C@@]3(F)[C@@H](O)C[C@@]21C`, with over 100 µM.
The same measure, in the same setting: the value for `COc1cc(/C=C/c2csnn2)cc(OC)c1OC` was over 100 µM; that for `c1ccc(C(c2ccccc2)c2ccccn2)cc1` was over 100 µM.

For a further assay, the system named is PC-3 prostate. As to the kind of experiment: NCI tumour cell line growth inhibition, 48 h.
As for `NC(N)=NCCCC(NCc1c2ccccc2nc2ccccc12)C(=O)O` (stereo not given), the TGI is over 100 µM.
As to `Cc1cc(Br)c(NC(=O)c2c(-c3c(Cl)cccc3Cl)noc2C)c(Br)c1`, the GI50 is over 100 µM and the TGI was over 100 µM.
In turn, `OCC1CC[N-]CC1.OCC1CC[N-]CC1.[Cl][Pt+2]([Cl])([Cl])[Cl]` had a TGI of 73 µM.
Regarding `OCCCCC#Cc1ccccc1C#Cc1cccc(C(F)(F)F)c1`, the GI50 was 18.2 µM and the TGI came out at 33.7 µM.
Regarding `CC(C)[C@@H]1CC[C@]2(CO2)[C@@H]2C(=O)OCC(C(=O)O)=C[C@H]21`, the GI50 is 0.677 µM and the TGI is over 100 µM.
On the same counts, the results for `COc1ccc(/C=C2\CCC/C(=C\c3ccc(OC)c(OC)c3)C2=O)cc1OC` are 2.83 µM and over 32.5 µM.

Another assay deals with SK-MEL-5 melanoma. Kind of assay: NCI tumour cell line growth inhibition, 48 h.
Molecule `CCOC(=O)C1=C(NC)OCC1=O` gave a TGI of over 100 µM.
Molecule `CCOC(=O)C1(C)CCC(C(C(=O)O)C(=O)O)CC1=O` (stereo not given) showed a TGI of over 100 µM.
Same read-out and setting: then `COC(=O)C1=C(C(=O)OC)C2(c3ccccc3)OC1(c1ccccc1)c1cc3ccccc3cc12`, with 3.69 µM; and `CC1NOC(=O)C1N=Nc1ccc(Cl)cc1Cl` (stereo not given), with 73.2 µM.
For the molecule `O=C(c1ccccc1)[C@H]1Nc2ccc(Cl)cc2[C@H]2CCC[C@@H]12`, the TGI amounted to 23 µM.
`COc1ccc2nc(NC(=O)C(=O)CC(=O)c3ccc([N+](=O)[O-])cc3)sc2c1` had a TGI of over 100 µM.
The molecule `CC(=O)Nc1ccc(C2CC(c3ccc([N+](=O)[O-])cc3)=Nc3ccccc3S2=O)cc1` (stereo not given) had a TGI of 48.4 µM.
In turn, `COc1cc(/C=C2\NC(=O)C(Cc3cc(OC)c(OC)c(C)c3OC)N(C(C)=O)C2=O)c(OC)c(C)c1OC` (stereo not given) returned a TGI of over 100 µM.
With `C[C@H](C(=O)O)C(=O)NC(=O)N(Cc1ccccc1)N=O`, the TGI was over 100 µM.
Consider `NNC(=O)C(=O)NN=C(C(Cl)(Cl)CO)C(Cl)(Cl)CO`, for which the TGI is over 100 µM.
On to `COc1ccc2ccccc2c1C1=NC(C)(C)CO1`, for which the TGI is over 100 µM.
The molecule `NC1=NC(Cn2nc(-c3ccccc3)c3ccccc3c2=O)=NNC(=O)N1` gave a TGI of over 100 µM.
The same measure, in the same setting: then `NC(N)=NCCCC(NCc1c2ccccc2nc2ccccc12)C(=O)O` (stereo not given), with over 62.2 µM.
Still for that read-out and setting: then `CC(=O)OC1COC(N2CCc3cc([N+](=O)[O-])ccc32)C(OC(C)=O)C1OC(C)=O` (stereo not given), with over 100 µM; and `CCOC(=O)C1S(=O)(=O)OCCOS1(=O)=O`, with over 100 µM.
As to `CC12OC(=O)C(C#N)C1(C)C1C(=O)CCCC12` (stereo not given), the TGI was over 100 µM.
On the same count and under the same terms, then `Cc1nc2ccccc2c(=O)n1/N=C(\N=Nc1ccccc1Cl)c1ccccc1Cl`, with over 100 µM.
Consider `Cc1cc(Br)c(NC(=O)c2c(-c3c(Cl)cccc3Cl)noc2C)c(Br)c1`, for which the GI50 is over 100 µM and the TGI is over 100 µM.
For `OCC1CC[N-]CC1.OCC1CC[N-]CC1.[Cl][Pt+2]([Cl])([Cl])[Cl]`, the GI50 was 34.5 µM.
As for `CCCC(=O)CC(C)C(=O)C(=O)NC12CC3CC(CC(C3)C1)C2` (stereo not given), the TGI is over 100 µM.
Molecule `CC(=O)OCC(=O)[C@@]1(O)CC[C@H]2[C@@H]3C[C@H](C)C4=CC(=O)C=C[C@]4(C)[C@@]3(F)[C@@H](O)C[C@@]21C` came in with a TGI of over 100 µM.
Take `OCCCCC#Cc1ccccc1C#Cc1cccc(C(F)(F)F)c1`: the GI50 was 17.8 µM and the TGI turned out to be 32.7 µM.
`COc1cc(/C=C/c2csnn2)cc(OC)c1OC` registered a TGI of over 100 µM.
Molecule `c1ccc(C(c2ccccc2)c2ccccn2)cc1` had a TGI of over 100 µM.
Consider `CC(C)[C@@H]1CC[C@]2(CO2)[C@@H]2C(=O)OCC(C(=O)O)=C[C@H]21`, for which the GI50 was 0.348 µM and the TGI worked out at 1.51 µM.
For `COc1ccc(/C=C2\CCC/C(=C\c3ccc(OC)c(OC)c3)C2=O)cc1OC`, the GI50 is 1.88 µM and the TGI was over 32.5 µM.

For a further assay, the system named is DLD-1 colon. Kind of assay: NCI tumour cell line growth inhibition, 48 h.
As for `CCOC(=O)C1(C)CCC(C(C(=O)O)C(=O)O)CC1=O` (stereo not given), the TGI was over 100 µM.
As for `COC(=O)C1=C(C(=O)OC)C2(c3ccccc3)OC1(c1ccccc1)c1cc3ccccc3cc12`, the TGI was 3.46 µM.
`CC1NOC(=O)C1N=Nc1ccc(Cl)cc1Cl` (stereo not given) showed a TGI of over 100 µM.
Still for that read-out and setting: the value for `O=C(c1ccccc1)[C@H]1Nc2ccc(Cl)cc2[C@H]2CCC[C@@H]12` was over 100 µM; that for `COc1ccc2nc(NC(=O)C(=O)CC(=O)c3ccc([N+](=O)[O-])cc3)sc2c1` was over 100 µM; that for `CC(=O)Nc1ccc(C2CC(c3ccc([N+](=O)[O-])cc3)=Nc3ccccc3S2=O)cc1` (stereo not given) was 34.5 µM.
Regarding `COc1cc(/C=C2\NC(=O)C(Cc3cc(OC)c(OC)c(C)c3OC)N(C(C)=O)C2=O)c(OC)c(C)c1OC` (stereo not given), the TGI was over 100 µM.
As to `C[C@H](C(=O)O)C(=O)NC(=O)N(Cc1ccccc1)N=O`, the TGI is over 100 µM.
Consider `NNC(=O)C(=O)NN=C(C(Cl)(Cl)CO)C(Cl)(Cl)CO`, for which the TGI amounted to 57.4 µM.

These data come from PubChem BioAssay (NCI).
